Source: patent US10208029B2, “Photoacid compositions having extended lifetime of proton dissociation state” (University of Central Florida Research Foundation, Inc., priority 2013, dated 2019)

Columns and labels:
[1] = Reversibility of photo-induced proton release; assay type: physicochemical; conditions: PBS buffer with a pH of 7.4
Excerpt: Referring now to FIGS. 6A-6QQ, the structures of 43 photoacids designed based on FIG. 3A including the photoacids 1 and 40 are shown. All of them have been synthesized. […]. Analogs of photoacid 1 have been extensively studied. Electron-donating groups (-Me and —OMe) on the phenolic moiety increase the stability of the photoacid towards hydrolysis and faster the reverse reaction rate. Photoacids with extended conjugated structures can absorb light and thus function at longer wavelengths than photoacid 1. For example, photoacid 20 has a maximum absorption at 538 nm in 95% ethanol solution, which is about 100 nm longer than that of photoacid 1. Photoacids 10, 17 and 39 have acrylate moieties. They can be used to make photoacid polymers via chain-growth polymerization or thiol-ene reaction. […]. […] In photoacid 34, a benzothiazolium is used as the EA part since it improves the reversibility of the photoreaction.

[2] = pH of aqueous solution of photoacid 1 in the dark, under 419 nm irradiation and after light off; assay type: physicochemical
Excerpt: Photoacid 1 shown in FIG. 2B as MEH comprises an example disclosed PAH comprising a protonated photochromic merocyanine (MEH) with a propyl sulfonate group on the nitrogen of the indoline moiety. It was discovered that photoacid 1 can reversibly change the proton concentration of its solution by over 100 times.
In an aqueous solution, the MEH form of 1 is predominantly at room temperature in the dark, which was proven by UV-Vis and NMR spectroscopy.
Proton dissociation of the cis-MEH produces cis-ME, which undergoes a nucleophilic ring closing reaction to yield the product shown as SP in FIG. 2B and a proton. The product formed by the ring closing process has a stabilized proton dissociation state.
When the light was turned off, the pH value increased quickly to ˜4.5 in ˜1 min, gradually returning to its original level in ˜5 min. This cycle can be repeated many times. Therefore, the proton concentration in a solution having photoacid 1 can be simply controlled by switching a visible light source on and off.

SMILES | reversible proton release [1] | reversible change of proton concentration of its solution [2] | pH value of aqueous solution ([2]; 5.88×10^−4 M aqueous solution, 25° C., dark) | pH under irradiation ([2]; aqueous solution irradiated with 419 nm light) | pH drop upon irradiation ([2]; aqueous solution, 419 nm light) | time to return to original pH level after light off ([2]; aqueous solution, dark) | pKa ([2]; calculated from pH of 5.88×10^−4 M aqueous solution at 25° C., dark state) | pH value after the light was turned off ([2]; ~1 min after light off)
O=S(=O)([O-])CCC[n+]1c(/C=C/c2cccc3cn[nH]c23)sc2ccccc21 [photoacid 34] | can reversibly release a proton |  |  |  |  |  |  | 
CC1(C)C(/C=C/c2ccccc2O)=[N+](CCCS(=O)(=O)[O-])c2ccccc21 [photoacid 1] |  | over 100 times | 5.5 | 3.3 | more than 2 units | ~5 min | 7.8 | ~4.5
